A short description of this series: Maximum plasma concentration of octreotide in rats after endoscopic administration. The settings on record: same administered octreotide level (5 mg).

Experimental: A control test was conducted on seven control rats. A 5 mg solution of octreotide was endoscopically administered to the control rats, and the resulting maximum plasma concentrations of octreotide in the control rats were measured.
Octreotide was administered to three test rats using techniques that were in accordance with embodiments of the present invention. A drug layer of 5 mg of octreotide was dried onto the outer layer of each of three capsules, and the capsules were endoscopically placed in the small intestine of the three test rats. The resulting maximum plasma concentrations of octreotide in the test rats were measured.

Turning to `C[C@@H](O)[C@@H]1NC(=O)[C@H](CCCCN)NC(=O)[C@@H](Cc2c[nH]c3ccccc23)NC(=O)[C@H](Cc2ccccc2)NC(=O)[C@@H](NC(=O)[C@H](N)Cc2ccccc2)CSSC[C@@H](C(=O)N[C@H](CO)[C@@H](C)O)NC1=O` [octreotide], the “resultant blood concentration of octreotide, test group (capsule surface) versus control group (solution)” value is listed as “significantly higher”.

The values are drawn from US8287902B2, “Enhanced-diffusion capsule” (Rainbow Medical Ltd., priority 2008, dated 2012).
